# In US9248202B2, “Two-photon probe for detecting copper(II) ion and quantitative estimation of copper(II) ion in human tissue using the same” (Korea University Research and Business Foundation, priority 2014, dated 2016):
# Assays:
# [1] = Solubility in HEPES buffer by fluorescence method; type: physicochemical; conditions: aqueous buffer; HEPES buffer ([HEPES]=20 mM, pH 7.0)
# Method: (hereinafter, ‘ACCu2’), a compound of [Chemical Formula 12] (hereinafter, ‘FL’) and a compound of [Chemical Formula 13] (hereinafter, ‘IR’) in 1,4-dioxane, DMF, ethanol, EtOH/HEPES (9:1) and HEPES buffer ([HEPES]=20 mM, pH 7.0). Excitation wavelength was 420 nm. The solubility of ACCu2 in HEPES buffer ([HEPES]=20 mM, pH 7.0) as determined by the fluorescence method described in the literature (Kim, H. M.; Choo, H. J.; Jung, S. Y.; Ko, Y. G.; Park, W. H.; Jeon, S. J.; Kim, C. H.; Joo, T. H.; Cho, B. R. Chem Bio Chem 2007, 8, 553) was 8.0 μM, which was sufficient to stain cells.
# HeLa cells = test: Two-photon microscopy of ACCu2-labeled HeLa cells, copper(II) ion estimation; type: cell-based, human; conditions: for free copper(II) ion concentration: from Ired/Iblue ratio and titration curve
# Description: The two curves were similar to the TPEF spectra of HeLa cells labeled with FL and IR. And, the OP-excited fluorescence (OPEF) spectra of FL and IR measured in EtOH/HEPES (9/1 v/v, pH=7.0) (see Table 1 and FIG. 1) confirmed that this solvent is a good model of the intracellular environment.
# In order to investigate the utility of ACCu2 in living cells, TPM images of ACCu2-labeled HeLa cells and tissues were obtained using spectral confocal and multiphoton microscopes (Leica TCS SP2) with ×100 (NA=1.30 OIL) and ×40 (NA=0.75 DRY) objective lenses.
# The TPM images were obtained with the DM IRE2 microscope (Leica) by exciting the probes with a mode-locked titanium-sapphire laser source (Coherent Chameleon, 90 MHz, 200 fs) set at a wavelength of 780 nm and an output power of 1305 mW. To obtain images at 400-650 nm, internal PMTs were used to collect signals in 8-bit unsigned 512×512 pixels at a scan rate of 400 Hz.
# HeLa human cervical carcinoma cells were acquired from the ATCC (Manassas, Va., USA). The cells were cultured in DMEM (WelGene, Inc., Seoul, Korea) supplemented with heat-inactivated 10% FBS (WelGene), penicillin (100 units/mL) and streptomycin ([…]), All the cell lines were maintained in a humidified atmosphere of 5% CO2 and 95% air at 37° C. Two days before imaging, the cells were moved and plated onto glass-bottomed dishes (MatTek), For labeling, the growth medium was removed and replaced with FBS-free DMEM. The cells were incubated with 3 μM ACCu2 for 20 minutes at 37° C., washed 3 times with FBS-free DMEM and imaged.
# Ratiometric images were constructed from the TPEF intensities collected in the two channels (FIG. 9(a)-(c)). The Ired/Iblue ratio for the ACCu2-labeled HeLa cells was measured as 9.9±0.8 (FIG. 9(d)). The ratio decreased to 6.5 upon addition of copper(II) ion (200 μM) and pyrrolidine dithiocarbamate (PDTC, 100 μM) due to accumulation of copper(II) ion inside the cells, and increased to 9.8 upon treatment with ethylenediaminetetraacetic acid (EDTA, 100 μM), a […] metal on chelator that effectively removes copper(II) ion.
# Since Iblue remains constant, ACCu2 according to the present disclosure can measure the Ired/Iblue ratio more accurately than the existing probe which requires the measurements of the changes in both Ired and Iblue. The free copper(II) ion concentration was calculated as 0.0±0.7 μM (FIG. 9(a)), 15±2 μM (FIG. 9(b)) and 0.0±1.9 μM (FIG. 9(c)) from the Ired/Iblue ratio and the titration curve shown in FIG. 5(b).
# [2] = Two-photon action cross section; type: physicochemical; conditions: at 880 nm, EtOH/HEPES (9/1 v/v, pH 7.0)
# Method: Referring to FIG. 4(a), the Φδmax value of ACCu2 in EtOH/HEPES (9/1 v/v, pH 7.0) buffer was 32 GM at 880 nm, while those for FL and IR were 32 GM at 880 nm and 46 GM at 750 nm. The lower Φδmax value of ACCu2 at 750 nm than that of IR is because of decreased fluorescence resonance energy transfer (FRET) from IR to FL and it allows to obtain bright TPM images of cells and ^.tissues labeled with ACCu2.
# The two-photon cross section (δ) was determined by the fe tosecond (fs) fluorescence measurement technique described in the literature (S. K. Lee, W. J. Yang, J. J. Choi, C. H. Kim, S.-J. Jeon, B. R. Cho, Org. Lett 2005, 7, 323-326.), ACCu2 was dissolved in 20 mM HEPES buffer (pH 7.0) to a concentration of 3.0×10^−6 M and then two-photon induced fluorescence intensity was measured at 740-940 nm using rhodamine 6G as a reference, whose two-photon property has been well characterized. The intensities of two-photon induced fluorescence of the reference and the sample were determined at the same excitation wavelength.
# The two-photon cross section can be calculated from equation (3). δ=δr(SsΦrΦrcr)/(SrΦsΦscs) Equation (3)
# wherein s and r stand for the sample, i.e., ACCu2, and the reference, respectively. S denotes the intensity of the signal collected using a CCD detector, Φ is the fluorescence quantum yield, Φ is the overall fluorescence collection efficiency of the experimental apparatus, c is the number density of molecules in solution, and δr is the two-photon cross section of the reference molecule.
# [3] = Fluorescence titration with copper(II) ion (one-photon and two-photon); type: binding
# Method: Referring to FIG. 3(b), when small increments of copper(II) ion were added to ACCu2 in EtOH/HEPES (9/1 viv, pH=7.0), the TPEF intensity at the channel 2 (Ired) decreased gradually without any appreciable change at the channel 1 (Iblue).
# The dissociation constant (Kd) can be calculated using Equation (2): […]
# wherein I is the fluorescence intensity, Ifinal is the fluorescence intensity for the CU^2+-ACCu2 complex and Iinitial is the fluorescence intensity for ACCu2.
# The dissociation constants (Kd^OP and Kd^TP) of ACCu2 for the OP and TP processes can be calculated from the fluorescence titration curves shown in FIG. 3(b). […] These indicate 1:1 complexation between the probe and the cation.
# Referring to FIG. 5(a), the fluorescence intensities of ACCu2 according to the present disclosure measured by the OP (one-photon) and TP (two-photon) processes decreased by 10-fold in the presence of 200 μM of copper(II) ion. […] This means that quantitative measurement of copper(II) ion is possible in this concentration range. Moreover, the Ired/Iblue ratios determined in the two-photon mode were well fitted by the titration curve obtained in the one-photon mode.
# [4] = ACCu2-labeled HeLa cells, 750 nm TP excitation, scanning lambda mode
smiles,measurement,setting,value
COCCOCCOCCOc1ccc2c(ccc3cc(C(=O)N4CCN(C(=O)c5ccc(CNC(=O)c6cc7cc8ccc(N(C)C)cc8cc7oc6=O)nc5)CC4)c(=O)oc32)c1 [ACCu2],solubility,[1],8 µM
same,"TPEF emission maximum, first Gaussian function (solid curve)",HeLa cells; [4],470 nm
same,"TPEF emission maximum, second Gaussian function (dotted curve)",HeLa cells; [4],582 nm
same,Ired/Iblue ratio,"HeLa cells; ACCu2-labeled HeLa cells, before addition of copper(II) ion",9.9±0.8
same,free copper(II) ion concentration,"HeLa cells; HeLa cells, FIG. 9(a)",0.0 ± 0.7 µM
same,free copper(II) ion concentration,"HeLa cells; HeLa cells, FIG. 9(b)",15 ± 2 µM
same,free copper(II) ion concentration,"HeLa cells; HeLa cells, FIG. 9(c)",0.0 ± 1.9 µM
same,Ired/Iblue ratio,"HeLa cells; HeLa cells, after copper(II) ion (200 μM) and PDTC (100 μM)",6.5
same,Ired/Iblue ratio,"HeLa cells; HeLa cells, after further treatment with EDTA (100 μM)",9.8
same,Φδmax (two-photon action cross section),[2],32 GM
same,detection limit for copper ion by TPM,[3],0.84 µM
same,decrease of fluorescence intensity,"[3]; OP and TP processes, in the presence of 200 μM copper(II) ion",10 fold
same,copper(II) ion concentration range in which Ired/Iblue plot is linear,[3]; titration curve FIG. 5(b),0 to 0.25 µM
